In US10017459B2, “β-substituted β-amino acids and analogs as chemotherapeutic agents and uses thereof” (Quadriga Biosciences, Inc., priority 2015, dated 2018):
Like-named read-outs stand apart in the source and are kept apart here. Blank lines part the entries; values can stand above or below the compound they belong to.

Assays:
hLAT1 = molecular target: T1, hLAT1 (Homo sapiens, UniProt Q01650); experiment: LAT1 uptake inhibition assay, radiolabeled competition uptake with [3H]-Gabapentin; assay type: cell-based
T1 construct: expressed in transfected cells; host or cells: LLCPK cells, tetracycline/doxycycline-inducible, boosted with sodium butyrate
T1 sequence (Q01650 whole entry, one chain of several): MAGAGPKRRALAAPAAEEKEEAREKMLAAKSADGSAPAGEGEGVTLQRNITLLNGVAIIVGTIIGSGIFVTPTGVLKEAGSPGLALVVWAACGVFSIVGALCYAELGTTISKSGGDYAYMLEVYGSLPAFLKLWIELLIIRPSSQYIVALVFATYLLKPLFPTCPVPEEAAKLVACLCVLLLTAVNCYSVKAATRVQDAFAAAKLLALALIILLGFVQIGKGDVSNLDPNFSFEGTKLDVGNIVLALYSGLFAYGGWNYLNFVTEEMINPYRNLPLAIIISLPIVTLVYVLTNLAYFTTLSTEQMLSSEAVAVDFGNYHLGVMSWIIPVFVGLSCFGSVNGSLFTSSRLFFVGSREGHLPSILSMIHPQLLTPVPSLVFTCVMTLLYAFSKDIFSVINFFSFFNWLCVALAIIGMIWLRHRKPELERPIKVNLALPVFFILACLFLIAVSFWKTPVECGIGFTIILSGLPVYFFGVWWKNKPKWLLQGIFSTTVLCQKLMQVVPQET

hLAT2 = molecular target: T2, hLAT2 (Homo sapiens, UniProt Q9UHI5); experiment: LAT2 uptake inhibition assay, radiolabeled competition uptake with [3H]-leucine; assay type: cell-based
T2 construct: expressed in transfected cells; host or cells: KB or LLCPK cells, tetracycline/doxycycline-inducible
T2 sequence (Q9UHI5 1-535): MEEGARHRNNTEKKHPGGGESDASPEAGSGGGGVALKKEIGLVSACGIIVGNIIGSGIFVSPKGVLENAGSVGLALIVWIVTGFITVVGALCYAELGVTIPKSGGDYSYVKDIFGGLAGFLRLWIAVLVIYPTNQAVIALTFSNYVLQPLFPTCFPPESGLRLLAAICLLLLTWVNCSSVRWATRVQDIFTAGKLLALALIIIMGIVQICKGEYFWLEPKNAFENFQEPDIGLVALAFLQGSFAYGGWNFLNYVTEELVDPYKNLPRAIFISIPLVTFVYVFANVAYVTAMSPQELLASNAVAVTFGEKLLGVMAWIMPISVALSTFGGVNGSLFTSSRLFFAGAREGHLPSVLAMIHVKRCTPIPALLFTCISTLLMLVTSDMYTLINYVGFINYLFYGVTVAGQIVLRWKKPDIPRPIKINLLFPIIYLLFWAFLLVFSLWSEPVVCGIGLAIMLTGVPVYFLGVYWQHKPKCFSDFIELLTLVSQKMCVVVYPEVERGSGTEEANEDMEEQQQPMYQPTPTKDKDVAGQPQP
T2 sequence (P08195 1-630 isoform P08195-1 partner): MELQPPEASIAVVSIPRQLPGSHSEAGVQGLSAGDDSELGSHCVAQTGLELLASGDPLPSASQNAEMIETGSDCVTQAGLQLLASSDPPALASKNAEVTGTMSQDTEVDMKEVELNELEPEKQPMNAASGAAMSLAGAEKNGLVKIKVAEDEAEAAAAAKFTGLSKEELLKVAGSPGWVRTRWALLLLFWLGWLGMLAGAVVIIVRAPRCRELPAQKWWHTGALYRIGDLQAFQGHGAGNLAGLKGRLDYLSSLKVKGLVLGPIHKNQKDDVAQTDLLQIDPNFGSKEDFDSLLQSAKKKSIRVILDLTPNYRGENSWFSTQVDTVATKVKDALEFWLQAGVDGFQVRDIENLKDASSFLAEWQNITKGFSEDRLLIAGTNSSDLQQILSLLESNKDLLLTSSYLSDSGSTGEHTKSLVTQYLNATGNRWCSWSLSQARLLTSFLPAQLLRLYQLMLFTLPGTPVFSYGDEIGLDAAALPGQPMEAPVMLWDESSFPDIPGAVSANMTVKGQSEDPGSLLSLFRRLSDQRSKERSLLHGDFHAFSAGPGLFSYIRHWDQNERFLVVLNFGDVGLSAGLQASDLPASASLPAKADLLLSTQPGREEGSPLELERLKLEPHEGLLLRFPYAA

[1] = system: LLCPK cells conditionally expressing hLAT1; experiment: cells; details: 0.5 h, read-out: LC50, concentration of test compound at which the percent surviving cells was 50%
Raji = experiment: cells; assay type: cell-based; details: Homo sapiens, read-out: IC50 (in vitro toxicity)
794 = experiment: cells; assay type: cell-based; details: read-out: IC50 (in vitro toxicity)
MCF7 = experiment: In vitro cytotoxicity, MCF7; assay type: cell-based; details: Homo sapiens, MCF7, read-out: IC50 (in vitro toxicity)
DBRTG = experiment: cells; assay type: cell-based; details: read-out: IC50 (in vitro toxicity)
U251 = experiment: cells; assay type: cell-based; details: Homo sapiens, U-251, read-out: IC50 (in vitro toxicity)
D283 = experiment: cells; assay type: cell-based; details: D283, read-out: IC50 (in vitro toxicity)
U251 MG = experiment: Orthotopic glioblastoma study (Example 84); assay type: in vivo, mouse; details: at a dose of 10 mg/kg, IV
Protocol: The efficacy of compounds provided by the present disclosure was evaluated using an orthotopic luciferase human glioblastoma model—U251 MG. Human glioblastoma cells were intracolonically injected (3×10^5 cells/3 μL) into athymic mice (female, 4-5 weeks-old, nu/un homozygous). Treatment began when the BLI reached a log-phase growth, at about 14 days after injection. Ten mice were assigned to each arm of the study. The mice were dosed with vehicle (IP, once weekly for 4 weeks), compound (5) (5 mg/kg, IV once weekly for 4 weeks), compound (5) (10 mg/kg, IV once weekly for 4 weeks), compound (40) (10 mg/kg, IV once weekly for 4 weeks), or compound (50) (20 mg/kg, IV single dose). The tumor volume was measured using bioluminescence imaging.

42MGBA = experiment: cells; assay type: cell-based; details: read-out: IC50 (in vitro toxicity)
LN229 = experiment: cells; assay type: cell-based; details: Homo sapiens, LN-229, read-out: IC50 (in vitro toxicity)
G55 = experiment: cells; assay type: cell-based; details: read-out: IC50 (in vitro toxicity)
PC3 = experiment: cells; assay type: cell-based; details: Homo sapiens, PC-3, read-out: IC50 (in vitro toxicity)
MV411 = experiment: cells; assay type: cell-based; details: Homo sapiens, MV4-11, read-out: IC50 (in vitro toxicity)
MDA-MB-231 = experiment: cells; assay type: cell-based; details: Homo sapiens, MDA-MB-231, read-out: IC50 (in vitro toxicity)
HCT116 = experiment: In vitro cytotoxicity, HCT116; assay type: cell-based; details: Homo sapiens, HCT-116, read-out: IC50 (in vitro toxicity)
[2] = system: Human prostate cancer PC3 cells; details: mouse, in vivo
[3] = KB cells, read-out: IC50, concentration of test compound at which the [3H]-Leu was inhibited by 50%
[4] = LAT1-expressing cells, increasing concentration of test compound, read-out: IC50, concentration of test compound at which the [3H]-GP was inhibited by 50%

Structure (SMILES): Cc1ccc(OC(=O)N(CCCl)CCCl)cc1C[C@H](N)CC(=O)O [Compound 29, (3S)-3-Amino-4-[5-[bis(2-chloroethyl)carbamoyloxy]-2-methyl-phenyl]butanoic Acid]
IC50 (hLAT1): < 100 µM

Structure (SMILES): Cc1ccc(CON(CCCl)CCCl)cc1C[C@H](N)CC(=O)O [Compound 32, (3S)-3-Amino-4-[5-[bis(2-chloroethyl)aminooxymethyl]-2-methyl-phenyl]butanoic Acid]
IC50 (hLAT2): < 100 µM
IC50 (hLAT1): < 100 µM

Structure (SMILES): Cc1ccc(N(CCCl)CCCl)cc1NC(=O)[C@H](N)CC(=O)O [Compound 22, (3R)-3-Amino-4-[[5-[bis(2-chloroethyl)amino]-2-methyl-phenyl]amino]-4-oxo-butanoic Acid]
IC50 (hLAT2): < 100 µM
CC50 [1]: < 1 µM

Structure (SMILES): Cc1ccc(N(CCO)CCCl)cc1C[C@H](N)CC(=O)O [Compound 58, (3S)-3-amino-4-[5-(2-chloroethyl(2-hydroxyethyl)amino)-2-methyl-phenyl]butanoic acid]
IC50 (hLAT1): < 100 µM

Structure (SMILES): Cc1cc(N(CCCl)CCCl)ccc1OC[C@H](N)CC(=O)O [Compound 27, (3R)-3-Amino-4-[4-[bis(2-chloroethyl)amino]-2-methyl-phenoxy]butanoic Acid]
CC50 [1]: < 1 µM

Structure (SMILES): N[C@H](CC(=O)O)Cc1cc(CO)ccc1N(CCCl)CCCl [Compound 52, (3S)-3-amino-4-[2-[bis(2-chloroethyl)amino]-5-(hydroxymethyl)phenyl]butanoic acid]
IC50 (hLAT2): < 100 µM
CC50 [1]: < 1 µM

Structure (SMILES): Cc1ccc(N(CCBr)CCOS(C)(=O)=O)cc1C[C@H](N)CC(=O)O [Compound 20, (3S)-3-Amino-4-[5-(2-bromoethyl(2-methylsulfonyloxyethyl)amino)-2-methyl-phenyl]butanoic Acid]
IC50 (hLAT2): < 100 µM

Structure (SMILES): Cc1ccc(N(CCCl)CCCl)cc1CC(N)CC(=O)O (racemic) [Compound 3, 3-Amino-4-[5-[bis(2-chloroethyl)amino]-2-methyl-phenyl]butanoic Acid]
CC50 [1]: < 1 µM

Structure (SMILES): N[C@@H](COc1ccc(N(CCCl)CCCl)cc1)CC(=O)O [Compound 69, (3R)-3-amino-4-[4-[bis(2-chloroethyl)amino]phenoxy]butanoic acid]
IC50 (hLAT1): < 100 µM

Structure (SMILES): COc1ccc(N(CCO)CCCl)cc1C[C@H](N)CC(=O)O [Compound 60, (3S)-3-amino-4-[5-(2-chloroethyl (2-hydroxyethyl)amino)-2-methoxy-phenyl]butanoic acid]
IC50 (hLAT2): < 100 µM
IC50 (hLAT1): < 100 µM

Structure (SMILES): Cc1ccc(N(CCCl)CCCl)c(C[C@H](N)CC(=O)O)c1 [Compound 50, (3S)-3-amino-4-[2-[bis(2-chloroethyl)amino]-5-methyl-phenyl]butanoic acid]
IC50 (Raji): < 100 µM
IC50 794: < 100 µM
IC50 (MCF7): < 100 µM
IC50 (DBRTG): < 100 µM
IC50 (U251): < 100 µM
IC50 (hLAT2): < 100 µM
IC50 (D283): < 100 µM
glioblastoma tumor growth (bioluminescence imaging) (U251 MG): suppressed glioblastoma tumor growth
IC50 (42MGBA): < 100 µM
IC50 (LN229): < 100 µM
IC50 (G55): < 100 µM
IC50 (PC3): < 100 µM
IC50 (MV411): < 100 µM
IC50 (MDA-MB-231): < 100 µM
IC50 (HCT116): < 100 µM

IC50 (hLAT2; [3]): < 100 µM
IC50 (hLAT1; [4]): < 100 µM
Structure (SMILES): Cc1ccc(C(=O)N[C@@H](CC(C)C)C(=O)C2(C)CO2)cc1C[C@H](N)CC(=O)O (stereo in doubt) [Compound 63, (3S)-3-amino-4-[2-methyl-5-[[(1S)-3-methyl-1-[(2R)-2-methyloxirane-2-carbonyl]butyl]carbamoyl]phenyl]butanoic acid]

Structure (SMILES): N[C@@H](COc1cccc(N(CCCl)CCCl)c1)CC(=O)O [Compound 68, (3R)-3-amino-4-[3-[bis(2-chloroethyl)amino]phenoxy]butanoic acid]
IC50 (hLAT1): < 100 µM

Structure (SMILES): CCOc1ccc(N(CCCl)CCCl)cc1C[C@H](N)CC(=O)O [Compound 42, (3S)-3-amino-4-[5-[bis(2-chloroethyl)amino]-2-ethoxy-phenyl]butanoic acid]
IC50 (hLAT2): < 100 µM
IC50 (hLAT1): < 100 µM
CC50 [1]: < 1 µM

Structure (SMILES): CC(C)Oc1ccc(N(CCCl)CCCl)cc1C[C@H](N)CC(=O)O [Compound 43, (3S)-3-amino-4-[5-[bis(2-chloroethyl)amino]-2-isopropoxy-phenyl]butanoic acid]
IC50 (hLAT2): < 100 µM
IC50 (hLAT1): < 100 µM
CC50 [1]: < 1 µM

IC50 (hLAT2; [3]): < 100 µM
IC50 (hLAT1; [4]): < 100 µM
Structure (SMILES): Cc1ccc(CBr)cc1C[C@H](N)CC(=O)O [Compound 57, (3S)-3-amino-4-[5-(bromomethyl)-2-methyl-phenyl]butanoic acid]

Structure (SMILES): Cc1ccc(COC(=O)N(CCCl)CCCl)cc1C[C@H](N)CC(=O)O [Compound 30, (3S)-3-Amino-4-[5-[bis(2-chloroethyl)carbamoyloxymethyl]-2-methyl-phenyl]butanoic Acid]
IC50 (hLAT1): < 100 µM

Structure (SMILES): N[C@H](CC(=O)O)Cc1cc(N(CCCl)CCCl)ccc1N(CCCl)CCCl [Compound 53, (3S)-3-amino-4-[2,5-bis[bis(2-chloroethyl)amino]phenyl]butanoic acid]
IC50 (hLAT2): < 100 µM
CC50 [1]: < 1 µM

Structure (SMILES): N[C@H](CC(=O)O)Cc1cc(CON(CCCl)CCCl)ccc1[N+](=O)[O-] [Compound 45, (3S)-3-amino-4-[5-[bis(2-chloroethyl)aminooxymethyl]-2-nitro-phenyl]butanoic acid]
IC50 (hLAT2): < 100 µM
IC50 (hLAT1): < 100 µM

Structure (SMILES): Cc1ccc(NCCCl)cc1C[C@H](N)CC(=O)O [Compound 54, (3S)-3-amino-4-[5-(2-chloroethylamino]-2-methyl-phenyl]butanoic acid]
IC50 (hLAT2): < 100 µM

Structure (SMILES): CCc1ccc(N(CCCl)CCCl)cc1C[C@H](N)CC(=O)O [Compound 40, (3S)-3-amino-4-[5-[bis(2-chloroethyl)amino]-2-ethyl-phenyl]butanoic acid]
IC50 (Raji): < 100 µM
IC50 (MCF7): < 100 µM
IC50 (DBRTG): < 100 µM
IC50 (U251): < 100 µM
IC50 (hLAT2): < 100 µM
IC50 (D283): < 100 µM
glioblastoma tumor growth (bioluminescence imaging) (U251 MG): suppressed glioblastoma tumor growth
IC50 (42MGBA): < 100 µM
IC50 (LN229): < 100 µM
IC50 (G55): < 100 µM
IC50 (PC3): < 100 µM
IC50 (MV411): < 100 µM
IC50 (hLAT1): < 100 µM
CC50 [1]: < 1 µM
body weight [2]: maintained weight
myelosuppression [2]: not dectected
tumor growth suppression [2]: dose-dependent tumor growth suppression
IC50 (MDA-MB-231): < 100 µM
IC50 (HCT116): < 100 µM
